# From ChEMBL document CHEMBL4130451, “Design and Synthesis of N-Aryl Phenoxyethoxy Pyridinones as Highly Selective and CNS Penetrant mGlu3 NAMs” (ACS Med Chem Lett, 2017)
# Activity calls are given as the source filed them. No cut-off for these calls is given here.
# Tests used:
# [1] = Fraction unbound in rat brain homogenate at 5 uM after 6 hrs by equilibrium dialysis based LC/MS/MS analysis; type: ADME, tissue-based
# [2] = target: Glucocorticoid receptor (Homo sapiens) (UniProt P04150); test: Inhibition of human glucocorticoid receptor at 10 uM relative to control
# [3] = target: Alpha-2A adrenergic receptor (Homo sapiens) (UniProt P08913); test: Inhibition of human adrenergic alpha 2A receptor at 10 uM relative to control
# Mesocricetus auratus = organism: Mesocricetus auratus; test: Inhibition of syrian hamster KATP at 10 uM relative to control
# Oryctolagus cuniculus = organism: Oryctolagus cuniculus; test: Inhibition of rabbit P2X receptor at 10 uM relative to control
# [4] = target: T1, Glutamate NMDA receptor (Rattus norvegicus) (UniProt P35439+Q00959+Q00960+Q00961+Q62645+Q8VHN2+Q9R1M7); test: Inhibition of rat glutamate NMDA receptor glycine binding site at 10 uM relative to control; type: protein-complex assay
# Rattus norvegicus [5] = organism: Rattus norvegicus; test: Inhibition of rat rolipram binding site at 10 uM relative to control
# [6] = target: D(2) dopamine receptor (Homo sapiens) (UniProt P14416); test: Inhibition of human dopamine D2S receptor at 10 uM relative to control
# [7] = target: Metabotropic glutamate receptor 4 (Rattus norvegicus) (UniProt P31423); test: Negative allosteric modulation of rat mGlu4 receptor expressed in HEK/GIRK cells assessed as inhibition of glutamate induced-calcium mobilization preincubated for 2.3 mins followed by glutamate addition measured for 2.6 mins by Fluo-4 AM dye based fluorescence assay; type: functional, cell-based
# Cytochrome P450 1A2 = Cytochrome P450 1A2 (Homo sapiens, UniProt P05177); test: Inhibition of CYP1A2 in human liver microsomes using phenacetin as substrate after 15 mins in presence of NADPH by LC/MS/MS analysis; type: ADME
# Cytochrome P450 1A2, sequence (P05177 whole entry): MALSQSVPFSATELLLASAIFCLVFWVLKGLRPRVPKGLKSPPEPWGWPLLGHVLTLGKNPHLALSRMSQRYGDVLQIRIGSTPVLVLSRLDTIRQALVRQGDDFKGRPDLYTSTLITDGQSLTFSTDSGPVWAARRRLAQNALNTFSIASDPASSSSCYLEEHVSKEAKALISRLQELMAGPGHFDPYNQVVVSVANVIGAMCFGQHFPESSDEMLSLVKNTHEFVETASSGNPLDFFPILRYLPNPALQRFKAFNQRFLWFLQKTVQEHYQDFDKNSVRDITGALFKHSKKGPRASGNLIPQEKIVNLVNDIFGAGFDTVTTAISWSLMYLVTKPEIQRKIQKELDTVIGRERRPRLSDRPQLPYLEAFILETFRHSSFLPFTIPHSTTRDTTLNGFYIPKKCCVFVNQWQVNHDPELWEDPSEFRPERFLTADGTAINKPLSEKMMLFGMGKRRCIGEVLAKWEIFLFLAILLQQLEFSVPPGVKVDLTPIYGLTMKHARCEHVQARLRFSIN
# [8] = target: Sodium-dependent serotonin transporter (Homo sapiens) (UniProt P31645); test: Inhibition of human SERT at 10 uM relative to control
# Sodium-dependent serotonin transporter (Homo sapiens), sequence (P31645 whole entry, looked up): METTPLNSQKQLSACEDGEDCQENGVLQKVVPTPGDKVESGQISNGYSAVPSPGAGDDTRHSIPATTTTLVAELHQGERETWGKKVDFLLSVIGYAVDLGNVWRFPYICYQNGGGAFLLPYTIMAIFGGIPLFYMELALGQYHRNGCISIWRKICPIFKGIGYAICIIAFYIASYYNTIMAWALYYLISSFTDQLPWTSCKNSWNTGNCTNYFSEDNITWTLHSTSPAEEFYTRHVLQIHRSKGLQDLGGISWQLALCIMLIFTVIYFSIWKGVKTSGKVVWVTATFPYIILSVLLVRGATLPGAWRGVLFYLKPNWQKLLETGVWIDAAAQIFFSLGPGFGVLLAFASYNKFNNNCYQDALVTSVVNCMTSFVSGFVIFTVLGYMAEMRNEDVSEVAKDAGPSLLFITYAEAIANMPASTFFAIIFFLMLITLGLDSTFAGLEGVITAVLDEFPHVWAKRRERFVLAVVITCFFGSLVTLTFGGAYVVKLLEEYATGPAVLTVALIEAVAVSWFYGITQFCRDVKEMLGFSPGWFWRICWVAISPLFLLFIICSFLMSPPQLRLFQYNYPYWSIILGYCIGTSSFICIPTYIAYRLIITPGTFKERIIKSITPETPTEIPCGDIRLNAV
# [9] = target: Metabotropic glutamate receptor 6 (Homo sapiens) (UniProt O15303); test: Negative allosteric modulation of human mGlu6 receptor expressed in HEK/GIRK cells assessed as inhibition of glutamate induced-calcium mobilization preincubated for 2.3 mins followed by glutamate addition measured for 2.6 mins by Fluo-4 AM dye based fluorescence assay; type: functional, cell-based
# [10] = target: Epidermal growth factor receptor (Homo sapiens) (UniProt P00533); test: Inhibition of human EGF receptor at 10 uM relative to control
# Epidermal growth factor receptor (Homo sapiens), sequence (P00533 whole entry): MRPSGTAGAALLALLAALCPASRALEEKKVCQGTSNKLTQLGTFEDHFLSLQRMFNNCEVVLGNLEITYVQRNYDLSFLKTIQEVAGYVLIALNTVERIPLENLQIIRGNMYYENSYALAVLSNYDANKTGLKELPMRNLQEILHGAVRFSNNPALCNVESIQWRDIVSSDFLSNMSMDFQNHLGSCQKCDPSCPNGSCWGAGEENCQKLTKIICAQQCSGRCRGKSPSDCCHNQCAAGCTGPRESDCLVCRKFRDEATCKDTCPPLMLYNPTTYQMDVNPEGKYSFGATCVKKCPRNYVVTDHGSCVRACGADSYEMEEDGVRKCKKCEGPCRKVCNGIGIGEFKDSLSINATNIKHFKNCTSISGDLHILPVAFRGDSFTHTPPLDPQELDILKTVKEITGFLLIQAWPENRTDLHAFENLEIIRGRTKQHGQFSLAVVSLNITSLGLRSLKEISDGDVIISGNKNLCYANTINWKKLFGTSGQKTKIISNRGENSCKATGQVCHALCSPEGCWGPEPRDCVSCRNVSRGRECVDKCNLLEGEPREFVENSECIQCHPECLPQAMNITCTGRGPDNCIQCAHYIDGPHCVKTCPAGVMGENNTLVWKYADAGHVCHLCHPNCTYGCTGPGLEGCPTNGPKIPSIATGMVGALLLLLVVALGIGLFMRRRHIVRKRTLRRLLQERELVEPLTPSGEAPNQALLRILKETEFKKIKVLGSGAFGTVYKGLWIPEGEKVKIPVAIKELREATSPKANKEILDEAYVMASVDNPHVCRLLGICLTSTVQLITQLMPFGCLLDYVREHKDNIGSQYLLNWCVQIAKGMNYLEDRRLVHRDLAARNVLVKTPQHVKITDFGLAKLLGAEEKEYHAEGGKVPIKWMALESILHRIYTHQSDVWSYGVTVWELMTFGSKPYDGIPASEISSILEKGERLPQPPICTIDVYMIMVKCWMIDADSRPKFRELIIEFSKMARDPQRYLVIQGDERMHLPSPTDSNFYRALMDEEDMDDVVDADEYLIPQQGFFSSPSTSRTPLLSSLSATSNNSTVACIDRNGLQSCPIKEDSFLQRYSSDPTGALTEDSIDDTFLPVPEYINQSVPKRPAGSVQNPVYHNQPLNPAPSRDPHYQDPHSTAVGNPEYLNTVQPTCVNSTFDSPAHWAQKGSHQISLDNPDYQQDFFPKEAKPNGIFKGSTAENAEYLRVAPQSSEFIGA
# Rattus norvegicus [11] = organism: Rattus norvegicus; test: Inhibition of central rat I2 receptor imidazoline binding site at 10 uM relative to control
# Homo sapiens = organism: Homo sapiens; test: Inhibition of human nicotinic acetylcholine receptor at 10 uM relative to control
# Rattus norvegicus [12] = organism: Rattus norvegicus; test: Inhibition of rat P2Y receptor at 10 uM relative to control
# [13] = target: Beta-1 adrenergic receptor (Homo sapiens) (UniProt P08588); test: Inhibition of human adrenergic beta1 receptor at 10 uM relative to control
# [14] = target: D(1A) dopamine receptor (Homo sapiens) (UniProt P21728); test: Inhibition of human dopamine D1 receptor at 10 uM relative to control
# D(1A) dopamine receptor (Homo sapiens), sequence (P21728 whole entry): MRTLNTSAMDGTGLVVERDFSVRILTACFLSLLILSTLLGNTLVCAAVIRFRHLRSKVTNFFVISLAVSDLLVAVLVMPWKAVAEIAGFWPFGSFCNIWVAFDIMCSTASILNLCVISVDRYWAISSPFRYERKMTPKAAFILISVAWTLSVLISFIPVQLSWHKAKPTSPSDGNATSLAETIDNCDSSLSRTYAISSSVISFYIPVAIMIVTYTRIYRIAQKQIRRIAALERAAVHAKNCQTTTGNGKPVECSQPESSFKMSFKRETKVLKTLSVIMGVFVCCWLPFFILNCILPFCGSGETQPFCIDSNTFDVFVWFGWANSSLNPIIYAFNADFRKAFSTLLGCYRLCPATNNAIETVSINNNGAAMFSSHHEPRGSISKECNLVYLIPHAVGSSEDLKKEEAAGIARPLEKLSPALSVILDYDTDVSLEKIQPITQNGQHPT
# [15] = Unbound brain to plasma concentration ratio in Harlan CD-1 mouse at 3 mg/kg, ip by LC/MS-MS analysis; type: ADME, organism-based; settings: read-out: K(p,uu,brain)
# [16] = target: 5-hydroxytryptamine receptor 3A (Homo sapiens) (UniProt P46098); test: Inhibition of human 5-HT3 receptor at 10 uM relative to control
# [17] = target: Delta-type opioid receptor (Homo sapiens) (UniProt P41143); test: Inhibition of human delta 1 opioid receptor at 10 uM relative to control
# [18] = Brain to plasma partition coefficient, Kp of the compound in rat; type: ADME
# [19] = target: Prostaglandin E2 receptor EP4 subtype (Homo sapiens) (UniProt P35408); test: Inhibition of human EP4 receptor at 10 uM relative to control
# Prostaglandin E2 receptor EP4 subtype (Homo sapiens), sequence (P35408 whole entry): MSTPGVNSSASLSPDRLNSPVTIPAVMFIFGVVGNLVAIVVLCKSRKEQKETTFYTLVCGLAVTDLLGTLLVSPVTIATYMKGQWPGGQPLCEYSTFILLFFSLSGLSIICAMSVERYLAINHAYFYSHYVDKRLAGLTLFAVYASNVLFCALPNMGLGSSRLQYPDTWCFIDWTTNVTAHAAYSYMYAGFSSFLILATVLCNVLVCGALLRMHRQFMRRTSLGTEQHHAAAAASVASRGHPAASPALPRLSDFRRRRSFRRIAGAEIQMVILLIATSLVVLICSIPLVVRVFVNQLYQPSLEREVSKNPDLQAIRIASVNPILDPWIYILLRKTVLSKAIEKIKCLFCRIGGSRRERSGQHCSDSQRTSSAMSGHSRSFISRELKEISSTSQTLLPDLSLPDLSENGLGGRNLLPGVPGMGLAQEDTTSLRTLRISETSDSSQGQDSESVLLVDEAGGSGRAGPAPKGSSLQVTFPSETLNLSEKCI
# [20] = target: Sodium-dependent dopamine transporter (Homo sapiens) (UniProt Q01959); test: Inhibition of human DAT at 10 uM relative to control
# Sodium-dependent dopamine transporter (Homo sapiens), sequence (Q01959 whole entry): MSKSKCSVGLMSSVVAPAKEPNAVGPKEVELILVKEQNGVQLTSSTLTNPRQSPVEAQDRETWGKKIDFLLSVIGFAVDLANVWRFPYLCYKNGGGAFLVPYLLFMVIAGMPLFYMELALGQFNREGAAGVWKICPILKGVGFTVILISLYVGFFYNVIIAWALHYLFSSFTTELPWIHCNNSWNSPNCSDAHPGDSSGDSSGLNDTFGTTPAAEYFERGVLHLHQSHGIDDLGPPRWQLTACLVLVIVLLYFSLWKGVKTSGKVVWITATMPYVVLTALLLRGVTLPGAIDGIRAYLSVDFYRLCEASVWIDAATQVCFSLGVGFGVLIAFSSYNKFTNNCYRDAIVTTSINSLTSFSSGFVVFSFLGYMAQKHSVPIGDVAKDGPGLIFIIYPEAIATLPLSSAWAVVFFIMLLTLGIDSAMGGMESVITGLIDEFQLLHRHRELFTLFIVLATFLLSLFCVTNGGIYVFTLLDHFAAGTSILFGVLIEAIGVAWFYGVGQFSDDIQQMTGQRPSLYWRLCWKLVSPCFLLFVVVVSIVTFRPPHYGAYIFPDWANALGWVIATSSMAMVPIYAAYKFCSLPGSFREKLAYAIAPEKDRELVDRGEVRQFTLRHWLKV
# Rattus norvegicus [21] = organism: Rattus norvegicus; test: Inhibition of rat kainate glutamate receptor at 10 uM relative to control
# [22] = target: T1, Glutamate NMDA receptor (Rattus norvegicus); test: Inhibition of rat glutamate NMDA receptor agonist binding site at 10 uM relative to control; type: protein-complex assay
# [23] = target: Melatonin receptor type 1A (Homo sapiens) (UniProt P48039); test: Inhibition of human MT1 receptor at 10 uM relative to control
# [24] = target: Alpha-1D adrenergic receptor (Homo sapiens) (UniProt P25100); test: Inhibition of human adrenergic alpha 1D receptor at 10 uM relative to control
# [25] = target: Adenosine receptor A1 (Homo sapiens) (UniProt P30542); test: Inhibition of human adenosine A1 receptor at 10 uM relative to control
# Adenosine receptor A1 (Homo sapiens), sequence (P30542 whole entry): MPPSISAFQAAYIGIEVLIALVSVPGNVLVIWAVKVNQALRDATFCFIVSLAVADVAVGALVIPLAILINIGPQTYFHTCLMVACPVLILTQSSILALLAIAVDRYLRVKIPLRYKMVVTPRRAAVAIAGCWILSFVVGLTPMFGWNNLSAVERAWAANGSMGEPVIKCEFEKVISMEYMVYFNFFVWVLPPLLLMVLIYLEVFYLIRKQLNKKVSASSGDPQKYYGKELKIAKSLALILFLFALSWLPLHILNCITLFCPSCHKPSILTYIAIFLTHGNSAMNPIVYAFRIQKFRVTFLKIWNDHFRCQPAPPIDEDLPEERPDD
# [26] = target: Neuropeptide Y receptor type 1 (Homo sapiens) (UniProt P25929); test: Inhibition of human […] Y1 receptor at 10 uM relative to control
# [27] = target: Platelet-activating factor receptor (Homo sapiens) (UniProt P25105); test: Inhibition of human platelet activating factor receptor at 10 uM relative to control
# [28] = target: 5-hydroxytryptamine receptor 2B (Homo sapiens) (UniProt P41595); test: Inhibition of human 5-HT2B receptor at 10 uM relative to control
# [29] = target: Cysteinyl leukotriene receptor 1 (Homo sapiens) (UniProt Q9Y271); test: Inhibition of human cysteinyl cys leukotriene receptor 1 at 10 uM relative to control
# [30] = target: Alpha-1A adrenergic receptor (Rattus norvegicus) (UniProt P43140); test: Inhibition of rat adrenergic alpha 1A receptor at 10 uM relative to control
# Alpha-1A adrenergic receptor (Rattus norvegicus), sequence (P43140 whole entry): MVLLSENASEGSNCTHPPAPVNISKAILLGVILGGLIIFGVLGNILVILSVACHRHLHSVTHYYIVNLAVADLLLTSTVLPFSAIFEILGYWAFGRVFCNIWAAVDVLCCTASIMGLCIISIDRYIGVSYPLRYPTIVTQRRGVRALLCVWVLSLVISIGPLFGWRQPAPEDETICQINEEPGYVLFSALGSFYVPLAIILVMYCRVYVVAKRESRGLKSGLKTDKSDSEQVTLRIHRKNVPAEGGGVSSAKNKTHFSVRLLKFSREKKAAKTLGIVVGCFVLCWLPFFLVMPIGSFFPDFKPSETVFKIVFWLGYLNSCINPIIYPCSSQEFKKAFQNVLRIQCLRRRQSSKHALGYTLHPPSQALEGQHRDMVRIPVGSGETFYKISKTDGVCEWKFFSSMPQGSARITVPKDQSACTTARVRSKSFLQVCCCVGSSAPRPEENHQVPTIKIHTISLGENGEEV
# Mus musculus [31] = organism: Mus musculus; test: Inhibition of mouse phorbol ester receptor at 10 uM relative to control
# [32] = Drug uptake in Harlan CD-1 mouse brain at 3 mg/kg, ip by LC/MS-MS analysis; type: ADME, organism-based; settings: in vivo, read-out: Drug uptake
# [33] = target: Adenosine receptor A3 (Homo sapiens) (UniProt P0DMS8); test: Inhibition of human adenosine A3 receptor at 10 uM relative to control
# Adenosine receptor A3 (Homo sapiens), sequence (P0DMS8 whole entry): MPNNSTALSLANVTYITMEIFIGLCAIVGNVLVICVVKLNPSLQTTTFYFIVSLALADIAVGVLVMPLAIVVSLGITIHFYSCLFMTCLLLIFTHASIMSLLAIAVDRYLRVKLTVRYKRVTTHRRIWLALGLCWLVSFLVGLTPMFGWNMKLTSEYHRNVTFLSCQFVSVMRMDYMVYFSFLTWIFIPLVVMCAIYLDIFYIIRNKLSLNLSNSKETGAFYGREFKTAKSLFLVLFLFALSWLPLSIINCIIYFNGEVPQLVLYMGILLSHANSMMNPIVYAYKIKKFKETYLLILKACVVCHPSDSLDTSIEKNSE
# [34] = target: L-type calcium channel, benzodiazepine site (Rattus norvegicus, UniProt P22002+P27732+Q02485); test: Inhibition of rat L-type calcium channel benzodiazepine site at 10 uM relative to control; type: protein assay
# [35] = target: Metabotropic glutamate receptor 2 (Rattus norvegicus, UniProt P31421); test: Negative allosteric modulation of rat mGlu2 receptor expressed in HEK293 cells coexpressing Galpha15 assessed as inhibition of glutamate induced-calcium mobilization preincubated for 2.3 mins followed by glutamate addition measured for 1.9 mins by Fluo-4 AM dye based fluorescence assay; type: functional, cell-based
# Mus musculus [36] = test: Antidepressant activity in CD-1 mouse assessed as reduction in immobility time administered ip 15 mins prior to test measured for 6 mins by tail suspension test; type: functional; settings: CD-1, ip, read-out: MED
# [37] = target: Interleukin-1 receptor type 1 (Mus musculus) (UniProt P13504); test: Inhibition of mouse IL1 receptor at 10 uM relative to control
# [38] = target: Mu-type opioid receptor (Homo sapiens) (UniProt P35372); test: Inhibition of human mu opioid receptor at 10 uM relative to control
smiles,measurement,setting,value
C[C@@H](COc1ccn(-c2ccc(F)cc2)c(=O)c1)Oc1ccccc1,"fraction unbound at 6 h, 5 µM",[1],0.06
same,inhibition,[2],> 50%
same,inhibition,[3],> 50%
same,inhibition,Mesocricetus auratus,> 50%
same,inhibition,Oryctolagus cuniculus,> 50%
same,inhibition,[4],> 50%
same,inhibition,Rattus norvegicus [5],> 50%
same,inhibition,[6],> 50%
same,inhibition,[7],inactive
same,IC50,Cytochrome P450 1A2,> 30 µM
same,inhibition,[8],> 50%
same,inhibition,[9],inactive
same,inhibition,[10],> 50%
same,inhibition,Rattus norvegicus [11],> 50%
same,inhibition,Homo sapiens,> 50%
same,inhibition,Rattus norvegicus [12],> 50%
same,inhibition,[13],> 50%
same,inhibition,[14],> 50%
same,Kp uu,[15],0.27
same,inhibition,[16],> 50%
same,inhibition,[17],> 50%
same,Kp,[18],1.15
same,inhibition,[19],> 50%
same,inhibition,[20],> 50%
same,inhibition,Rattus norvegicus [21],> 50%
same,inhibition,[22],> 50%
same,inhibition,[23],> 50%
same,inhibition,[24],> 50%
same,inhibition,[25],> 50%
same,inhibition,[26],> 50%
same,inhibition,[27],> 50%
same,inhibition,[28],> 50%
same,inhibition,[29],> 50%
same,inhibition,[30],> 50%
same,inhibition,Mus musculus [31],> 50%
same,concentration,[32],1.2 µM
same,inhibition,[33],> 50%
same,inhibition at 10 µM,[34],> 50%
same,IC50,[35],> 30 µM
same,minimal effective dose,Mus musculus [36],3 mg/kg
same,inhibition,[37],> 50%
same,inhibition,[38],> 50%
